Experimental data taken from patent US20050090522A1 (priority 2001, published 2005).

Tested on: HIV-1
Test: HIV-1 single-round infectious luciferase reporter virus (pseudotype) assay in HeLa CD4 CCR5 cells
Format: cell-based
Settings: Human immunodeficiency virus 1, HeLa-CD4/CCR5, read-out: EC50 Group from TABLE 1, HeLa CD4 CCR5 cells, single-round infectious luciferase reporter virus
Experimental: • Virus production—Human embryonic Kidney cell line, 293, propagated in Dulbecco's Modified Eagle Medium (Life Technologies, Gaithersburg, Md.) containing 10% fetal Bovine serum (FBS, Sigma, St. Louis, Mo.). • Virus infection—Human epithelial cell line, HeLa, expressing the HIV-1 receptors CD4 and CCR^5 was propagated in Dulbecco's Modified Eagle Medium (Life Technologies, Gaithersburg, Md.) containing 10% fetal Bovine serum (FBS, Sigma, St. Louis, Mo.) and supplemented with 0.2 mg/mL Geneticin (Life Technologies, Gaithersburg, Md.) and 0.4 mg/mL Zeocin (Invitrogen, Carlsbad, Calif.). […] Transfections were performed using lipofectAMINE PLUS reagent as described by the manufacturer (Life Technologies, Gaithersburg, Md.). Experiment • 1. Compound was added to HeLa CD4 CCR5 cells plated in 96 well plates at a cell density of 5×10^4 cells per well in 100 μl Dulbecco's Modified Eagle Medium containing 10% fetal Bovine serum at a concentration of […]. • 2. 100 μl of single-round infectious reporter virus in Dulbecco's Modified Eagle Medium was then added to the plated cells and compound at an approximate multiplicity of infection (MOI) of 0.01, resulting in a final volume of 200 μl per well and a final compound concentration of <10 μM. • 3. Samples were harvested 72 h after infection. • 4. Viral infection was monitored by measuring luciferase expression from viral DNA in the infected cells using a luciferase reporter gene assay kit (Roche Molecular Biochemicals, Indianapolis, Ind.). Infected cell supernatants were removed and 50 μl of Dulbecco's Modified Eagle Medium (without phenol red) and 50 μl of luciferase assay reagent reconstituted as described by the manufacturer (Roche Molecular Biochemicals, Indianapolis, Ind.) was added per well. Luciferase activity was then quantified by measuring luminescence using a Wallac microbeta scintillation counter. • 5. […] An EC50 provides a method for comparing the antiviral potency of the compounds of this invention. The effective concentration for fifty percent inhibition (EC50) was calculated with the Microsoft Excel Xlfit curve fitting software. For each compound, curves were generated from percent inhibition calculated at 10 different concentrations by using a four paramenter logistic model (model 205). Table 1 is the key for the data in Tables 2-4. Cytoxicity assays were conducted with the same HeLa using methodology well known in the art.
In Table 5, X2, X4 etc. indicates the point of attachment. […] The data at 10 μM was calculated in the following manner:
For compounds tested at concentrations less than 10 μM, the percent inhibition at 10 μM was determined by extrapolation using the XLfit curve fitting feature of the Microsoft Excel spreadsheet software. Curves were obtained from 10 data points (% inhibition determined at 10 concentrations of compound) by using a four parameter logistic model (XLfit model 205: y=A+((B−A)/(I+((C/x)^D))), where, A=minimum y, B=maximum y, C=logEC50, D=slope factor, and x and y are known data values. Extrapolations were performed with the A and B parameters unlocked. […]

| Compound | EC50 [µM] |
| --- | --- |
| CCNc1cnc(-c2ncc(OC)c3c(C(=O)C(=O)N4CCN(C(=O)c5ccccc5)CC4)c[nH]c23)cn1 [Example 79, 1-benzoyl-4-[(4-methoxy-7-(2-ethylamino-pyrazin-5-yl)-6-azaindol-3-yl)-oxoacetyl]piperazine] | < 1 |
| COc1cnc(-c2ccoc2)c2[nH]cc(C(=O)C(=O)N3CCN(C(=O)c4ccccc4)CC3)c12 [Example 81, 1-benzoyl-4-[(4-methoxy-7-(furan-3-yl)-6-azaindol-3-yl)-oxoacetyl]piperazine] | < 1 |
| COc1cnc(-c2cccs2)c2[nH]cc(C(=O)C(=O)N3CCN(C(=O)c4ccccc4)CC3)c12 [Example 82, 1-benzoyl-4-[(4-methoxy-7-(thiophen-2-yl)-6-azaindol-3-yl)-oxoacetyl]piperazine] | < 1 |
| COc1cnc(-c2ccsc2)c2[nH]cc(C(=O)C(=O)N3CCN(C(=O)c4ccccc4)CC3)c12 [Example 83, 1benzoyl-4-[(4-methoxy-7-(thiophen-3-yl)-6-azaindol-3-yl)-oxoacetyl]piperazine] | < 1 |
| COc1cnc(-c2ccc(C=O)s2)c2[nH]cc(C(=O)C(=O)N3CCN(C(=O)c4ccccc4)CC3)c12 [Example 84, 1-benzoyl-4-[(4-methoxy-7-(5-carbonyl-thiophen-2-yl)-6-azaindol-3-yl)-oxoacetyl]piperazine] | < 1 |
| COc1cnc(-c2ccc(C=O)o2)c2[nH]cc(C(=O)C(=O)N3CCN(C(=O)c4ccccc4)CC3)c12 [Example 85, 1-(benzoyl)-4-[(4-methoxy-7-(5-carbonyl-furan-2-yl)-6-azaindol-3-yl)-oxoacetyl]piperazine] | < 1 |
| COc1cnc(-c2ccc(C(=O)O)o2)c2[nH]cc(C(=O)C(=O)N3CCN(C(=O)c4ccccc4)CC3)c12 [Example 87, 1-benzoyl-4-[(4-methoxy-7-(2-hydroxycarbonyl-furan-5-yl)-6-azaindol-3-yl)-oxoacetyl]piperazine] | < 1 |
| CCc1ncc(-c2ncc(OC)c3c(C(=O)C(=O)N4CCN(C(=O)c5ccccc5)CC4)c[nH]c23)s1 [Example 88, 1-benzoyl-4-[(4-methoxy-7-(2-ethyl-thiazol-5-yl)-6-azaindol-3-yl)-oxoacetyl]piperazine] | < 1 |
| CC(C)Cc1ncc(-c2nccc3c(C(=O)C(=O)N4CCN(C(=O)c5ccccc5)CC4)c[nH]c23)s1 [Example 89, 1-benzoyl-4-[(7-(2-isobutyl-thiazol-5-yl)-6-azaindol-3-yl)-oxoacetyl]piperazine] | < 1 |
| COc1cnc(-c2cnc(CC(C)C)s2)c2[nH]cc(C(=O)C(=O)N3CCN(C(=O)c4ccccc4)CC3)c12 [Example 90, 1-benzoyl-4-[(4-methoxy-7-(2-isobutyl-thiazol-5-yl)-6-azaindol-3-yl)-oxoacetyl]piperazine] | < 1 |
| CCC(C)c1ncc(-c2ncc(OC)c3c(C(=O)C(=O)N4CCN(C(=O)c5ccccc5)CC4)c[nH]c23)s1 (stereo not shown) [Example 91, 1-benzoyl-4-[(4-methoxy-7-(2-(2-butyl)-thiazol-5-yl)-6-azaindol-3-yl)-oxoacetyl]piperazine] | < 1 |
| COc1cnc(-c2cnc(-c3nccs3)s2)c2[nH]cc(C(=O)C(=O)N3CCN(C(=O)c4ccccc4)CC3)c12 [Example 92, 1-benzoyl-4-[(4-methoxy-7-(2-(thiazol-2-yl)-thiazol-5-yl)-6-azaindol-3-yl)-oxoacetyl]piperazine] | < 1 |
| COc1cnc(-c2cnc(SC)s2)c2[nH]cc(C(=O)C(=O)N3CCN(C(=O)c4ccccc4)CC3)c12 [Example 93, 1-benzoyl-4-[(4-methoxy-7-(2-methylthio-thiazol-5-yl)-6-azaindol-3-yl)-oxoacetyl]piperazine] | < 1 |
| COc1cnc(-c2cnc(O)cn2)c2[nH]cc(C(=O)C(=O)N3CCN(C(=O)c4ccccc4)CC3)c12 [Example 97, 1-(benzoyl)-4-[(4-methoxy-7-(2-hydroxyl-pyrazin-5-yl)-6-azaindol-3-yl)-oxoacetyl]piperazine] | < 1 |
| COc1cnc(-c2cc3ccccc3o2)c2[nH]cc(C(=O)C(=O)N3CCN(C(=O)c4ccccc4)CC3)c12 [Example 98] | < 1 |
| COc1cnc(-c2cnc(NC(C)=O)cn2)c2[nH]cc(C(=O)C(=O)N3CCN(C(=O)c4ccccc4)CC3)c12 [Example 99, 1-(benzoyl)-4-[(4-methoxy-7-(2-acetylamino-pyrazin-5-yl)-6-azaindol-3-yl)-oxoacetyl]piperazine] | < 1 |
| CNc1ncc(-c2ncc(OC)c3c(C(=O)C(=O)N4CCN(C(=O)c5ccccc5)CC4)c[nH]c23)nc1OC [Example 100, 1-benzoyl-4-[(4-methoxy-7-(2-methylamino-3-methoxy-pyrazin-5-yl)-6-azaindol-3-yl)-oxoacetyl]piperazine] | < 1 |
| COc1nc(-c2ncc(OC)c3c(C(=O)C(=O)N4CCN(C(=O)c5ccccc5)CC4)c[nH]c23)cnc1N [Example 101, 1-benzoyl-4-[(4-methoxy-7-(2-amino-3-methoxy-pyrazin-5-yl)-6-azaindol-3-yl)-oxoacetyl]piperazine] | < 1 |
| COc1cnc(-c2cnc(N(C)C)cn2)c2[nH]cc(C(=O)C(=O)N3CCN(C(=O)c4ccccn4)CC3)c12 [Example 103, 1-picolinoyl-4-[(4-methoxy-7-(2-dimethylamino-pyrazin-5-yl)-6-azaindol-3-yl)-oxoacetyl]piperazine] | < 1 |
| COc1cnc(-c2cc3ccncc3o2)c2[nH]cc(C(=O)C(=O)N3CCN(C(=O)c4ccccc4)CC3)c12 [Example 104, 1-benzoyl-4-[(4-methoxy-7-(6-aza-benzofuran-2-yl)-6-azaindol-3-yl)-oxoacetyl]piperazine] | < 1 |
| C[C@@H]1CN(C(=O)c2ccccn2)CCN1C(=O)C(=O)c1c[nH]c2c(-c3cnc(N(C)C)cn3)nccc12 [Example 105, (R)-1-picolinoyl-3-methyl-4-[(7-(2-dimethylamino-pyrazin-5-yl)-6-azaindol-3-yl)-oxoacetyl]piperazine] | < 1 |
| C[C@H]1CN(C(=O)c2ccccn2)CCN1C(=O)C(=O)c1c[nH]c2c(-c3cnc(N(C)C)cn3)nccc12 [Example 106, (S)-1-picolinoyl-3-methyl-4-[(7-(2-dimethylamino-pyrazin-5-yl)-6-azaindol-3-yl)-oxoacetyl]piperazine] | < 1 |
| C[C@@H]1CN(C(=O)c2ccccn2)CCN1C(=O)C(=O)c1c[nH]c2c(-c3cc4ccccc4o3)nccc12 [Example 107, (R)-1-picolinoyl-3-methyl-4-[(7-(benzofuran-2-yl)-6-azaindol-3-yl)-oxoacetyl]piperazine] | < 1 |
| C[C@H]1CN(C(=O)c2ccccn2)CCN1C(=O)C(=O)c1c[nH]c2c(-c3cc4ccccc4o3)nccc12 [Example 108, (S)-1-picolinoyl-3-methyl-4-[(7-(benzofuran-2-yl)-6-azaindol-3-yl)-oxoacetyl]piperazine] | < 1 |
| C[C@@H]1CN(C(=O)c2ccccn2)CCN1C(=O)C(=O)c1c[nH]c2c(-c3cncs3)nccc12 [Example 109, (R)-1-picolinoyl-3-methyl-4-[(7-(thiazol-5-yl)-6-azaindol-3-yl)-oxoacetyl]piperazine] | < 1 |
| C[C@H]1CN(C(=O)c2ccccn2)CCN1C(=O)C(=O)c1c[nH]c2c(-c3cncs3)nccc12 [Example 110, (S)-1-picolinoyl-3-methyl-4-[(7-(thiazol-5-yl)-6-azaindol-3-yl)-oxoacetyl]piperazine] | < 1 |
| C[C@@H]1CN(C(=O)c2ccccc2)CCN1C(=O)C(=O)c1c[nH]c2c(-c3cncc(N)n3)nccc12 [Example 111, (R)-1-benzoyl-3-methyl-4-[(7-(2-amino-pyrazin-6-yl)-6-azaindol-3-yl)-oxoacetyl]piperazine] | < 1 |

Same assay, conditions: Human immunodeficiency virus 1, HeLa-CD4/CCR5, read-out: EC50 Group from Table 1, Table 4; HeLa CD4 CCR5 cells, single-round luciferase reporter virus

| Compound | EC50 [µM] |
| --- | --- |
| Cc1csc(-c2ccnc3c(C(=O)C(=O)N4CCN(C(=O)c5ccccc5)C[C@H]4C)c[nH]c23)c1 [Example 86, 1-benzoyl-3-(R)-methyl-4-[(7-(4-methyl-thiophen-2-yl)-4-azaindol-3-yl)-oxoacetyl]piperazine] | < 1 |
